The record followed here is ChEMBL document CHEMBL1799987, “In vivo and in vitro SAR of tetracyclic MAPKAP-K2 (MK2) inhibitors. Part II” (Bioorg Med Chem Lett, 2010).

In brackets after ≈: the same amount, converted by molar mass. Bounds are passed on as bounds.

A short description of data set [1]: Thermodynamic solubility of the compound at pH 6.8. The conditions noted are these: buffer, read-out: Therm_solubility. The format is physicochemical.
The test system of another data set is Plasma. In words: Plasma concentration in OF1 mouse at 100 mg/kg, po. The format is ADME, organism-based. Also on record: dose 100 mg/kg, route oral. The note with it: in vivo.
The subject of a further data set is PBMC. The data set is described as follows: cells. The note with it: Homo sapiens.
The species entered for another data set is Mus musculus. In words: animal or person. The conditions noted are these: OF1, po, 1 h, read-out: INH.
In data set [2] the target is T1, MAP kinase-activated protein kinase 2 (Homo sapiens, UniProt P49137).
T1 sequence (P49137 whole entry): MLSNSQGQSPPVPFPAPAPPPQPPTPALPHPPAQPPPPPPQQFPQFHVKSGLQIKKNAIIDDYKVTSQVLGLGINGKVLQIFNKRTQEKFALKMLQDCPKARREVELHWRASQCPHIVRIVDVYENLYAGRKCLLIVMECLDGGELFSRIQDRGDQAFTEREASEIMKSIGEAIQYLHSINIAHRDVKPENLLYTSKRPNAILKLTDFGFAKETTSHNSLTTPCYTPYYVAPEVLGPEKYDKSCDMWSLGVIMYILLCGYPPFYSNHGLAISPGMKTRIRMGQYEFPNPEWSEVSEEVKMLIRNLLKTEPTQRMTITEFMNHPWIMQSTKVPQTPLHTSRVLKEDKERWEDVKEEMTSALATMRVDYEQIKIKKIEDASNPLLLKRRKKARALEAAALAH
Data set [3] deals with T1, MAP kinase-activated protein kinase 2. This is another data set of the same source.
Description: Inhibition of MK2 mediated anisomycin-stimulated hsp27 phosphorylation in human THP-1 cells by fluorometric analysis

Description for Mus musculus: Inhibition of LPS-induced TNFalpha production in OF1 mouse at 100 mg/kg, po after 1 hr by ELISA
Description for PBMC: Inhibition of LPS-induced TNFalpha production in human PBMC preincubated for 30 mins measured after 3 hrs of LPS stimulation

For `CN1CC2(CNC(=O)c3c2[nH]c2c3CCc3cnc(-c4ccccc4F)cc3-2)C1`, the solubility thermodynamic in data set [1] was > 1000 µM. The concentration in the data set with Plasma came to 6000 nM. This compound also yielded an IC50 in the data set on PBMC of 0.1 µM. The inhibition in vivo at 100 mg/kg in the data set listed under Mus musculus came out at 90%.
In the data set with PBMC, `O=C1NCC2(CN(CCF)C2)c2[nH]c3c(c21)CCc1cnc(-c2ccccc2F)cc1-3` came in with an IC50 of 1.5 µM.
With `O=C1NC2(CC2)Cc2[nH]c3c(c21)CCc1cnc(-c2cccc(F)c2)cc1-3`, the solubility thermodynamic in data set [1] was found to be 5 µM (≈ 1.8 µg/mL). In the data set on Plasma, the concentration was found to be 15000 nM. The IC50 in the data set on PBMC worked out at 0.8 µM. In addition, the inhibition in vivo at 100 mg/kg in the data set filed under Mus musculus was 55%.
For `COc1ccc(-c2cc3c(cn2)CCc2c-3[nH]c3c2C(=O)NCC32CN(C)C2)cc1` the same measures were 40 µM (≈ 16 µg/mL), 100 nM, 0.06 µM and 0%.
As for `COc1ccc(-c2ncc3c(n2)-c2[nH]c4c(c2CC3)C(=O)NC2(CC2)C4)cc1`, in data set [1], the solubility thermodynamic was < 4 µM.
Regarding `O=C1NC2(CC2)Cc2[nH]c3c(c21)CCc1cnc(-c2ccc(OCCN4CCOCC4)cc2)cc1-3`, the solubility thermodynamic in data set [1] is < 4 µM. Also, the IC50 in the data set with PBMC was found to be 0.2 µM.
As for `COCCOc1cncc(-c2cc3c(ccc4c5c([nH]c43)CCNC5=O)cn2)c1`, the solubility thermodynamic in data set [1] is < 4 µM. The IC50 in data set [2] was determined as 0.01 µM; in data set [3], 1.5 µM; in the data set on PBMC, 0.3 µM.
Turning to `CCN1CC2(CNC(=O)c3c2[nH]c2c3CCc3cnc(-c4ccccc4F)cc3-2)C1`, in data set [1], the solubility thermodynamic stood at 950 µM (≈ 382 µg/mL). The compound further showed a half-maximal inhibitory concentration (IC50) in the data set on PBMC of 0.7 µM.
In the case of `CN1CC2(CNC(=O)c3c2[nH]c2c3CCc3cnc(-c4ccc(F)nc4)nc3-2)C1`, in data set [1], the solubility thermodynamic is 173 µM (≈ 67.5 µg/mL). The compound also yielded an IC50 in the data set on PBMC of 0.7 µM.
Regarding `CN1CC2(CNC(=O)c3c2[nH]c2c3CCc3cnc(-c4cccc(F)c4)cc3-2)C1`, in data set [1], the solubility thermodynamic was 10 µM (≈ 3.88 µg/mL). The same compound displayed a concentration in the data set on Plasma of 1000 nM. The same compound returned an IC50 in the data set with PBMC of 0.2 µM. Besides, the inhibition in vivo at 100 mg/kg in the data set filed under Mus musculus came out at 0%.
On to `O=C1NC2(CC2)Cc2[nH]c3c(c21)CCc1cnc(-c2ccccc2F)cc1-3`, for which the solubility thermodynamic in data set [1] is 10 µM (≈ 3.59 µg/mL). Further, the IC50 in the data set on PBMC was 0.9 µM.
Take `O=C1NCCc2[nH]c3c(c21)CCc1cnc(-c2cccc(F)c2)cc1-3`: in data set [1], the solubility thermodynamic is < 4 µM. This compound had an IC50 in the data set with PBMC of 0.5 µM.
Taken in the same sequence, the figures for `COc1ccc(-c2ncc3c(n2)-c2[nH]c4c(c2CC3)C(=O)NCC42CN(C)C2)cc1` were 43 µM (≈ 17.3 µg/mL) and 0.1 µM.
Taken in the same sequence, the figures for `COCCOc1cncc(-c2cc3c(cn2)CCCc2c-3[nH]c3c2C(=O)NCC3)c1` were 21 µM (≈ 8.49 µg/mL) and 1.1 µM.
For `Cn1c2c(c3c1C1(CNC1)CNC3=O)CCc1cnc(-c3ccccc3F)cc1-2` the same measures were 54 µM (≈ 21 µg/mL) and 1.8 µM.
Take `COc1ccc(-c2cc3c(cn2)CCc2c-3[nH]c3c2C(=O)NC2(CC2)C3)cc1`: the solubility thermodynamic in data set [1] was < 4 µM. In addition, the concentration with Plasma worked out at 25000 nM. For the same compound, in the data set with PBMC, the midpoint of inhibition, the IC50, lay at 0.2 µM. The inhibition in vivo at 100 mg/kg in the data set filed under Mus musculus stood at 81%.
For `O=C1NCC2(CC2)c2[nH]c3c(c21)CCc1cnc(-c2ccc(F)nc2)cc1-3` the same measures were < 4 µM, 1900 nM, 0.7 µM and 30%.
As for `CC(=O)N1CC2(CNC(=O)c3c2[nH]c2c3CCc3cnc(-c4ccccc4F)cc3-2)C1`, the solubility thermodynamic in data set [1] is 24 µM (≈ 9.99 µg/mL). Further, the concentration for half-maximal inhibition (IC50) in the data set on PBMC was 6.5 µM.
`COCCOc1cncc(-c2ncc3c(n2)-c2[nH]c4c(c2CC3)C(=O)NCC42CN(C)C2)c1` registered an IC50 in the data set with PBMC of 1.5 µM.
The same measure, in the same setting: next, `CN1CC2(CNC(=O)c3c2[nH]c2c3CCc3cnc(-c4ccc(OCCN5CCOCC5)cc4)cc3-2)C1`: 0.6 µM.
As to `O=C1NC2(CC2)Cc2[nH]c3c(c21)CCc1cnc(-c2ccc(OCCN4CCOCC4)cc2)nc1-3`, the solubility thermodynamic in data set [1] is < 4 µM. Moreover, in the data set with PBMC, the IC50 came to 0.3 µM.
Taken in the same sequence, the figures for `CN1CC2(CNC(=O)c3c2[nH]c2c3Cc3cnc(-c4ccccc4F)cc3-2)C1` were 69 µM (≈ 25.8 µg/mL) and > 10 µM.
For `COCCOc1cncc(-c2cc3c(cn2)CCc2c-3[nH]c3c2C(=O)NCC3)c1` the same measures were 8 µM (≈ 3.12 µg/mL) and 0.4 µM.
Turning to `COc1ccc(-c2cc3c(cn2)CCc2c-3[nH]c3c2C(=O)NCC3)cc1`, the solubility thermodynamic in data set [1] was < 4 µM. In the data set on PBMC, this compound returned an IC50 of 0.1 µM.
The compound `O=C1NCC2(CNC2)c2[nH]c3c(c21)CCc1cnc(-c2cccc(F)c2)cc1-3` gave an IC50 with PBMC of 0.2 µM.
As for `COc1ccc(-c2ncc3c(n2)-c2[nH]c4c(c2CC3)C(=O)NCC4)cc1`, the solubility thermodynamic in data set [1] is < 5 µM. In the data set on PBMC, this compound had an IC50 of 0.9 µM.
Taken in the same sequence, the figures for `CN1CCC2(CC1)CNC(=O)c1c2[nH]c2c1CCc1cnc(-c3ccccc3F)cc1-2` were > 1000 µM and 0.2 µM.
For `CN1CC2(CNC(=O)c3c2[nH]c2c3CCc3cnc(-c4ccccc4F)nc3-2)C1` the same measures were 373 µM (≈ 145 µg/mL) and 1.6 µM.
With `CN1CC2(CNC(=O)c3c2[nH]c2c3CCc3cnc(-c4cccc(F)c4)nc3-2)C1`, in the data set on PBMC, half-maximal inhibition (IC50) required 0.5 µM.
Consider `O=C1NCC2(CNC2)c2[nH]c3c(c21)CCc1cnc(-c2ccccc2F)cc1-3`, for which the solubility thermodynamic in data set [1] came out at 337 µM (≈ 126 µg/mL). The IC50 in the data set on PBMC was determined as 0.1 µM.
On to `CN1CC2(CNC(=O)c3c2[nH]c2c3CCc3cnc(-c4ccc(F)nc4)cc3-2)C1`, for which the solubility thermodynamic in data set [1] was 47 µM (≈ 18.3 µg/mL). In the data set with Plasma, this compound came in with a concentration of 600 nM. The IC50 in the data set with PBMC was determined as 0.1 µM. For the same compound, in the data set listed under Mus musculus, the inhibition in vivo at 100 mg/kg was determined as 26%.
On to `O=C1NC2(CC2)Cc2[nH]c3c(c21)CCc1cnc(-c2ccccc2F)nc1-3`, for which the solubility thermodynamic in data set [1] is 8 µM (≈ 2.88 µg/mL). Also, the IC50 in the data set on PBMC is 2.3 µM.
`O=C1NCCc2[nH]c(-c3ccnc(-c4ccccc4F)c3)cc21`: the solubility thermodynamic in data set [1] is 337 µM (≈ 104 µg/mL). Moreover, in the data set with PBMC, the IC50 is > 10 µM.
Turning to `O=C1NCCc2[nH]c3c(c21)CCc1cnc(-c2ccccc2F)cc1-3`, in data set [1], the solubility thermodynamic came to 11 µM (≈ 3.67 µg/mL). For the same compound, the IC50 in the data set with PBMC was 1.5 µM.
Taken in the same sequence, the figures for `COc1ccc(-c2cc3c(cn2)CCc2c-3[nH]c3c2C(=O)NC2(C3)CN(C)C2)cc1` were < 4 µM and 1.1 µM.
`O=C1NCC2(CC2)c2[nH]c3c(c21)CCc1cnc(-c2cccc(F)c2)cc1-3`: the solubility thermodynamic in data set [1] is < 4 µM. This compound also returned an IC50 with PBMC of 0.9 µM.
Taken in the same sequence, the figures for `COc1ccc(-c2cc3c(cn2)CCc2c-3[nH]c3c2C(=O)NC2(CNC2)C3)cc1` were 32 µM (≈ 12.4 µg/mL) and 1.3 µM.
Taken in the same sequence, the figures for `COc1ccc(-c2ncc3c(n2)-c2[nH]c4c(c2CC3)C(=O)NCC42CC2)cc1` were < 4 µM and 0.4 µM.
On to `O=C1NCC2(CNC2)c2oc3c(c21)CCc1cnc(-c2cccc(F)c2)cc1-3`, for which, in data set [1], the solubility thermodynamic came to 51 µM (≈ 19.1 µg/mL). The 50% inhibitory concentration (IC50) in the data set with PBMC came to 2.5 µM.
With `COc1ccc(-c2cc3c(cn2)CCc2c-3[nH]c3c2C(=O)NCC32CC2)cc1`, in data set [1], the solubility thermodynamic is < 4 µM. Moreover, the concentration in the data set with Plasma worked out at 600 nM. For the same compound, the IC50 in the data set on PBMC was found to be 1.7 µM. Moreover, the inhibition in vivo at 100 mg/kg in the data set listed under Mus musculus came to 16%.
Turning to `O=C1NC2(CC2)Cc2[nH]c3c(c21)CCc1cnc(-c2ccc(F)nc2)nc1-3`, in data set [1], the solubility thermodynamic was < 4 µM. The IC50 with PBMC was found to be 0.7 µM.
As to `CN1CC2(CNC(=O)c3c2[nH]c2c3CCc3cnc(-c4ccc(OCCN5CCOCC5)cc4)nc3-2)C1`, the IC50 with PBMC amounted to 0.1 µM.
In the case of `CN1CC2(CNC(=O)c3c4c(n(C)c32)-c2cc(-c3ccccc3F)ncc2CC4)C1`, the solubility thermodynamic in data set [1] was 41 µM (≈ 16.5 µg/mL). Half-maximal inhibition with PBMC (IC50) required 1.1 µM.
In the data set with PBMC, `COCCCOc1cncc(-c2cc3c(cn2)CCc2c-3[nH]c3c2C(=O)NCC32CN(C)C2)c1` returned a half-maximal inhibitory concentration (IC50) of 0.7 µM.

Usually IC50 stands for the midpoint of a concentration-inhibition curve. Read a low IC50 as higher potency.
